Source: patent publication US10238630B2, “Use of eribulin and poly (ADP ribose) polymerase (PARP) inhibitors as combination therapy for the treatment of cancer” (Eisai R&D Management Co., Ltd., priority 2014, dated 2019)
“Also recorded” adds a separate entry of the source. Counter-ions that a name gives are not always drawn.

Legend:
[1] = tested on: MDA-MB-436 human breast cancer xenografts; assay: Antitumor activity against subcutaneous MDA-MB-436 human breast cancer xenografts in SCID mice (three studies); format: in vivo
Experimental: MDA-MB-436 human triple negative breast cancer cells are BRCA1 mutant and PTEN null. Cells were maintained in monolayer cultures in RPMI-1640 growth medium supplemented with 10% fetal bovine serum at 37° C. in a 5% CO2 humidified incubator. On the day of inoculation, cells were harvested by trypsinization, washed, and resuspended in ice-cold PBS. Female immunodeficient SCID mice were inoculated subcutaneously near the right axillary area with MDA-MB-436 cells (5×10^6) in a 1:1 ratio (50 μL each) with Matrigel™ in a volume of 0.1 mL in phosphate buffered saline, using a 26-gauge needle. A total of 125 mice, approximately 6 weeks old were implanted with MDA-MB-436 cells.
E7449, carboplatin and E7389 were evaluated as single agents and in combination for antitumor activity against MDA-MB-436 human breast cancer xenografts in SCID mice. Three separate studies were performed. The first experiment consisted of a vehicle control group, an E7449 single agent group, two groups treated with single agent E7389 and 2 combination drug-treated groups (Table 1). Thirty mice were inoculated with MDA-MB-436 cells and on Day 58 following implantation, tumor volumes were measured and mice were randomized into the 6 treatment groups based on tumor volume (average of 300 mm^3). Following randomization, drug treatment was initiated. Groups A to D were composed of 5 mice and groups E and F consisted of 4 mice for a total of 28 mice on the first day of treatment. E7449 was formulated in 0.5% methyl cellulose and orally administered once daily for 28 days (starting on Day 58) at 60 mg/kg based on body weight at 0.1 mL per 10 g. E7389 was formulated in saline and was intravenously administered once every 4 days, 4 times (Day 58, 62, 66, and 70) at a dosage of 0.4 or 1.6 mg/kg as single agent or in combination with E7449, based on body weight at 0.1 mL per 10 g. The control group was treated with oral vehicle (0.5% methyl cellulose in water) daily and intravenous vehicle (saline) once every 4 days, 4 times. E7449 or vehicle was administered first and when dosing of all animals was complete, E7389 was administered to animals receiving the combination.
The second experiment consisted of a vehicle control group, an E7449 single agent group, 2 groups treated with single agent carboplatin, and 2 combination drug-treated groups (Table 2). Thirty-five mice were inoculated with MDA-MB-436 cells and on Day 57, following implantation, tumor volumes were measured and mice were randomized into 6 treatment groups based on tumor volume (average of 250 mm^3). Following randomization drug treatment was initiated. Groups A to D were composed of 5 mice and groups E and F consisted of 6 mice for a total of 32 mice on the first day of treatment. E7449, formulated in 0.5% methyl cellulose was orally administered daily for 28 days (starting on Day 57), at 60 mg/kg based on body weight at 0.1 mL per 10 g. Carboplatin was formulated in saline and was intravenously administered once on the first day of treatment (Day 57) at a dosage of 15 or 60 mg/kg as a single agent or in combination with E7449 based on body weight at 0.1 mL per 10 g. The control group was treated with oral vehicle (0.5% methyl cellulose in water) daily and intravenous vehicle (saline) once on Day 57. E7449 or vehicle was administered first, and when dosing of all animals was complete carboplatin was administered to animals receiving the combination.
The third experiment consisted of a vehicle control group, 3 groups treated with single agent E7449, E7389, or carboplatin, 3 groups treated with double combinations of E7449+E7389, E7449+carboplatin, and E7389+carboplatin and a group treated with the three-drug combination (Table 3). Sixty mice were inoculated with MDA-MB-436 cells and on Day 41 following implantation, tumor volumes were measured and mice were randomized into 8 treatment groups based on tumor volume (average of 250 mm^3). Following randomization drug treatment was initiated.

[2] = tested on: HCC1806 human breast cancer xenografts; assay: Antitumor activity against subcutaneous HCC1806 human breast cancer xenografts in athymic mice; format: in vivo
Experimental: HCC1806 human triple negative breast cancer cells, wild type for BRCA and PTEN, were maintained in monolayer cultures in RPMI-1640 growth medium supplemented with 10% fetal bovine serum at 37° C. in a 5% CO2 humidified incubator. On the day of inoculation, cells were harvested by trypsinization, washed, and resuspended in ice-cold PBS. Female immunodeficient athymic mice were inoculated subcutaneously near the right axillary area using a 26-gauge needle with HCC1806 cells (2.5×10^6) in a 0.1 mL volume. A total of 60 mice, approximately 6 weeks old were implanted with cells.
E7449 and E7389 were evaluated as single agents and in combination for anti-tumor activity against HCC1806 human breast cancer xenografts in athymic mice. The experiment consisted of a vehicle-treated control group, an E7449 single agent-treated group, two groups treated with single agent E7389 and 2 combination drug-treated groups (Table 7). Each group was composed of 8 mice for a total of 48 mice on the first day of treatment. Sixty mice were inoculated with HCC1806 cells and on day 5 following implantation, tumor volumes were measured and mice were randomized into the 6 treatment groups based on tumor volume (average of 150 mm^3). Following randomization drug treatment was initiated (Day 5). E7449 was formulated in 0.5% methyl cellulose and orally administrated daily at 100 mg/kg based on body weight at 0.1 mL per 10 g. E7449 was administered once daily for 28 days (starting on Day 5) as a single agent or in combination with E7389. E7389 was formulated in saline and was administered intravenously once every 4 days 4 times (Day 5, 9, 13, and 17) at a dosage of 0.1 or 0.4 mg/kg as single agent or in combination with E7449, based on body weight at 0.1 mL per 10 g. The control group was treated with oral vehicle (0.5% methyl cellulose in water) daily and intravenous vehicle (saline) once every 4 days, 4 times. E7449 or vehicle was administered first and when dosing of all animals was complete E7389 was administered to animals receiving the combination.
Tumor dimensions were recorded twice per week starting at the initiation of drug treatment. […] The data generated consist of group mean tumor volumes and group mean body weights at each measurement.
Drug treatment was initiated following randomization on Day 5 (5 days post tumor implantation) and continued for 28 days. Animals whose tumor measurement reached ≥2 cm at the longest axis were euthanized prior to study termination. The study was terminated on Day 38. Statistical analysis was performed on Day 20.
Statistical analysis of the vehicle group (A) versus all drug treatment groups (B, C, D, E and F) was performed by a one way analysis of variance (ANOVA) for tumor volume followed by Dunnett's multiple comparison test. […]

Row | Compound | antitumor effect (tumor volume) ([1]; E7449+E7389 study, E7389 0.4 mg/kg IV Q4Dx4, single agent) | antitumor effect (tumor volume) ([1]; E7449+E7389 study, E7389 1.6 mg/kg IV Q4Dx4, single agent) | antitumor effect (tumor volume), dose dependence ([1]; E7449+E7389 study, E7389 0.4 and 1.6 mg/kg IV Q4Dx4, single agent) | antitumor effect (tumor volume) ([1]; triple combination study, E7389 0.2 mg/kg IV Q4Dx4, single agent, 0.2 mg/kg) | antitumor effect (tumor volume) ([2]; E7389 0.1 mg/kg IV Q4Dx4, single agent) | antitumor effect (tumor volume) ([2]; E7389 0.4 mg/kg IV Q4Dx4, single agent) | antitumor effect (tumor volume), dose dependence ([2]; E7389 0.1 and 0.4 mg/kg IV Q4Dx4, single agent) | antitumor effect (tumor volume) ([1]; E7449+E7389 study, E7449 60 mg/kg PO QDx28, single agent) | antitumor effect (tumor volume) ([1]; E7449+carboplatin study, E7449 60 mg/kg PO QDx28, single agent) | antitumor effect (tumor volume) ([1]; triple combination study, E7449 60 mg/kg PO QDx28, single agent) | antitumor effect (tumor volume) ([2]; E7449 100 mg/kg PO QDx28, single agent, 100 mg/kg)
1 | C=C1C[C@@H]2CC[C@@]34C[C@H]5OC6[C@@H](O[C@H]7CC[C@H](CC(=O)C[C@@H]8[C@@H](OC)[C@@H](C[C@H](O)CN)O[C@H]8C[C@H]8O[C@@H](CC[C@@H]1O2)C[C@@H](C)C8=C)O[C@@H]7[C@@H]6O3)[C@H]5O4 [E7389, 11, 15:18,21:24,28-triepoxy-7,9-ethano-12,15-methano-9H,15H-furo[3,2-i]furo[2′,3′:5,6]pyrano[4,3-b] [1,4]dioxacyclopentacosin-5(4H)-one, 2-[(2S)-3-amino-2-hydroxypropyl]hexacosahydro-3-methoxy-26-methyl-20,27-bis(methylene)-, (2R,3R,3aS,7R,8aS,9S,10aR,11S,12R,13aR,13bS,15S,18S,21S,24S,26R,28R,29aS)-methanesulfonate (salt)] | modest antitumor effect | tumor regression | Dose dependent antitumor activity | did not significantly inhibit tumor growth | tumor growth inhibition | tumor regression | Dose-dependent antitumor activity | – | – | – | –
2 | O=c1[nH]nc2c3c(cccc13)N=C(CN1Cc3ccccc3C1)N2 [E7449] | – | – | – | – | – | – | – | modest and statistically significant tumor growth inhibition | modest and statistically significant tumor growth inhibition | statistically significant tumor growth inhibition | no effect on tumor growth; also recorded: No antitumor activity
